Laboratory results reported in ChEMBL document CHEMBL1137145, “Benzodiazepine inhibitors of the MMPs and TACE. Part 2” (Bioorg Med Chem Lett, 2004).

Legend:
[1] = molecular target: Collagenase 3 (Homo sapiens, UniProt P45452); experiment: In vitro inhibitory activity against matrix metalloprotease-13
[2] = Ability to inhibit LPS-stimulated TNF production in THP-1 cells at 3 uM concentration; type: functional; settings: Homo sapiens
[3] = molecular target: Disintegrin and metalloproteinase domain-containing protein 17 (Homo sapiens, UniProt P78536); experiment: Inhibitory activity against Tumor necrosis factor alpha converting enzyme
Sequence of Disintegrin and metalloproteinase domain-containing protein 17 (P78536 whole entry, the tested form may be a part): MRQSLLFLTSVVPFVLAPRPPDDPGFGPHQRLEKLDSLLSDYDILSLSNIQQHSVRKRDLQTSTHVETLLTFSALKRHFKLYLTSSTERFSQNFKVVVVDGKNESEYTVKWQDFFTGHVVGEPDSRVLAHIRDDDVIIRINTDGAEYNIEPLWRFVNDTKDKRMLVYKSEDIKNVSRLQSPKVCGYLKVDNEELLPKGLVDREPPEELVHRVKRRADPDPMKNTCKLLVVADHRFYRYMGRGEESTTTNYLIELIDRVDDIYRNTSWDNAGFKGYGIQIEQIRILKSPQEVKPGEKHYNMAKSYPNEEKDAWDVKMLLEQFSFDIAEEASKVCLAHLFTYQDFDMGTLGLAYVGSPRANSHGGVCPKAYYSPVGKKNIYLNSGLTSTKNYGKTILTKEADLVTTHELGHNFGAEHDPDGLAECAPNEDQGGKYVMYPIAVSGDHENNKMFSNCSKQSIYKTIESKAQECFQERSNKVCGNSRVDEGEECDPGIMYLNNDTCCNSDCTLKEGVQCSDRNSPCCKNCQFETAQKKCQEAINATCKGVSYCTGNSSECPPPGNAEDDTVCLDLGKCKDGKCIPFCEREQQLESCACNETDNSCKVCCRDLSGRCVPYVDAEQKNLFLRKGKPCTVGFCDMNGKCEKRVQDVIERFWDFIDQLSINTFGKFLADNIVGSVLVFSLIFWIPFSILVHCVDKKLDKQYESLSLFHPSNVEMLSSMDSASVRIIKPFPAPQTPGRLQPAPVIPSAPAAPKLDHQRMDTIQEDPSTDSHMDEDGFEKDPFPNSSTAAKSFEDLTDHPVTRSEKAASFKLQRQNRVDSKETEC

[4] = molecular target: T1, Interstitial collagenase (Homo sapiens, UniProt P03956); experiment: In vitro inhibitory activity against matrix metalloprotease-1
T1 sequence (P03956 whole entry): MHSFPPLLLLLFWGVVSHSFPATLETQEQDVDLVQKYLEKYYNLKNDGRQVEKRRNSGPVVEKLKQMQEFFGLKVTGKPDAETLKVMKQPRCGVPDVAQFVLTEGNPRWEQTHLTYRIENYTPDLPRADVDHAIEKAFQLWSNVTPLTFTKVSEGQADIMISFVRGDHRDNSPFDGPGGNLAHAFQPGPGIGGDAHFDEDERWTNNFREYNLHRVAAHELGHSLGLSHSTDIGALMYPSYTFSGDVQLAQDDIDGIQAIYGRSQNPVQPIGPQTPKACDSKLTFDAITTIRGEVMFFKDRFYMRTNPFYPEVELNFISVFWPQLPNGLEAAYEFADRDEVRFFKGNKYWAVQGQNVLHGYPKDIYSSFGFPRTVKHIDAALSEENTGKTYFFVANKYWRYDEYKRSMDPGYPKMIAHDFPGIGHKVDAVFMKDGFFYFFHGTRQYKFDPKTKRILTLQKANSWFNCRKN

[5] = molecular target: T2, Interstitial collagenase (Homo sapiens) (UniProt P03956); experiment: In vitro inhibitory activity against matrix metallo proteinase-1 at 1 uM concentration
T2 sequence (whole entry): T1 sequence (P03956 whole entry)

SMILES	IC50 [1] [nM]	inhibition at 3 µM [2] [%]	IC50 [3] [nM]	IC50 [4] [nM]	inhibition [5] [%]
CC#CCOc1ccc(S(=O)(=O)N2Cc3ccc(CN(C)C)cc3N(C(C)=O)CC2C(=O)NO)cc1 (configuration not stated)	67	70	18	904	–
CC#CCOc1ccc(S(=O)(=O)N2Cc3ccccc3N(C(=O)c3ccco3)CC2C(=O)NO)cc1 (configuration not stated)	–	74	–	–	–
CC#CCOc1ccc(S(=O)(=O)N2Cc3ccccc3N(C(=O)c3cccnc3)CC2C(=O)NO)cc1 (configuration not stated)	19	33	89	238	–
CC#CCOc1ccc(S(=O)(=O)N2Cc3cc(N(C)CCc4ccccn4)ccc3N(C(C)=O)CC2C(=O)NO)cc1 (configuration not stated)	53	82	121	–	19
CC#CCOc1ccc(S(=O)(=O)N2Cc3cc(N4CCOCC4)ccc3N(C(C)=O)CC2C(=O)NO)cc1 (configuration not stated)	33	73	130	1260	–
CC#CCOc1ccc(S(=O)(=O)N2Cc3cc(OCCc4ccccc4)ccc3N(C(C)=O)CC2C(=O)NO)cc1 (configuration not stated)	28	83	36	–	45
CC#CCOc1ccc(S(=O)(=O)N2Cc3ccccc3N(C(=O)c3cnccn3)CC2C(=O)NO)cc1 (configuration not stated)	20	41	69	356	–
CC#CCOc1ccc(S(=O)(=O)N2Cc3ccc(C(=O)NC)cc3N(C(C)=O)CC2C(=O)NO)cc1 (configuration not stated)	42	64	41	813	–
CC#CCOc1ccc(S(=O)(=O)N2Cc3cc(NCCc4ccccn4)ccc3N(C(C)=O)CC2C(=O)NO)cc1 (configuration not stated)	47	44	49	–	30
CC#CCOc1ccc(S(=O)(=O)N2Cc3ccc(CNC(C)=O)cc3N(C(C)=O)CC2C(=O)NO)cc1 (configuration not stated)	12	46	31	578	–
CC#CCOc1ccc(S(=O)(=O)N2Cc3ccc(CO)cc3N(C(C)=O)CC2C(=O)NO)cc1 (configuration not stated)	20	63	12	500	–
CC#CCOc1ccc(S(=O)(=O)N2Cc3ccccc3N(C(C)=O)CC2C(=O)NO)cc1 (configuration not stated)	–	60	–	–	–
CC#CCOc1ccc(S(=O)(=O)N2Cc3ccccc3N(C(=O)COC)CC2C(=O)NO)cc1 (configuration not stated)	97	73	81	853	–
CC#CCOc1ccc(S(=O)(=O)N2Cc3cc(N(C)C)ccc3N(C(C)=O)CC2C(=O)NO)cc1 (configuration not stated)	17	33	197	682	–
CC#CCOc1ccc(S(=O)(=O)N2Cc3cc(N4CCN(C)CC4)ccc3N(C(C)=O)CC2C(=O)NO)cc1 (configuration not stated)	21	75	92	852	–
CC#CCOc1ccc(S(=O)(=O)N2Cc3ccc(CNC)cc3N(C(C)=O)CC2C(=O)NO)cc1 (configuration not stated)	32	81	14	456	–
CC#CCOc1ccc(S(=O)(=O)N2Cc3ccc(CN4CCNCC4)cc3N(C(C)=O)CC2C(=O)NO)cc1 (configuration not stated)	17	72	14	483	–
